For 2 molecules, EC50 results are on record in ChEMBL document CHEMBL3045470, “Effect of 2-allylphenol against Botrytis cinerea Pers., and its residue in tomato fruit” (Crop Prot, 2007).

Assay type in all cases: functional, organism-based
Test [1] has as its system Alternaria solani. Description: Antifungal activity against Alternaria solani incubated as 50% WP formulation.
The test system of test [2] is Fulvia fulva. Description: Antifungal activity against Passalora fulva incubated as 50% WP formulation.
In test [3] the test system is Botrytis cinerea. Kind of test: Antifungal activity against Botryotinia fuckeliana incubated as 50% WP formulation.
In test [4] the test system is Alternaria solani. Description: Antifungal activity against Alternaria solani incubated as 10% EC formulation.
Test [5] has as its system Botrytis cinerea. Kind of test: Antifungal activity against Botryotinia fuckeliana incubated as 10% EC formulation.
Test [6] has as its system Fulvia fulva. Description: Antifungal activity against Passalora fulva incubated as 10% EC formulation.

Converted amounts (≈) assume the structure as drawn.

On to `CC(C)NC(=O)N1CC(=O)N(c2cc(Cl)cc(Cl)c2)C1=O` [IPRODIONE], for which the EC50 in the test on Alternaria solani [1] came to 56 µg/mL (≈ 169 µM); in the test on Fulvia fulva [2], 48.9 µg/mL (≈ 148 µM); with Botrytis cinerea [3], 58.6 µg/mL (≈ 177 µM).
For the molecule `C=CCc1ccccc1O` [2-ALLYLPHENOL], the concentration for a half-maximal effect (EC50) was 31.3 µg/mL (≈ 233 µM) in the test on Alternaria solani [4], 21.7 µg/mL (≈ 162 µM) in the test with Botrytis cinerea [5] and 52.2 µg/mL (≈ 389 µM) in the test with Fulvia fulva [6].
